Measurements published in patent US9023809B2, “Phenylalanine dipeptide derivatives, compositions and use thereof” (The Key Laboratory of Chemistry For Natural Products of …, priority 2008, dated 2015).
Converted amounts (≈) assume the structure as drawn. “And” between values parts separate entries of the source, which are not always exact repeats. Equal values may be shown once. *1 amine or outer side, *2 acyl side, *3 side chain or, on linkers, in order; H or OH if unused. Where a SMILES comes first, the peptide text is derived from it. [ ]: non-standard residue; d: D form. The star is where a group is joined. Tyr(3-NO2) = N[C@@H](Cc1ccc(O)c([N+](=O)[O-])c1)C(=O)O; Phe(4-NO2) = N[C@@H](Cc1ccc([N+](=O)[O-])cc1)C(=O)O; Phe(4-NH2) = Nc1ccc(C[C@H](N)C(=O)O)cc1; Suc = O=C(CCC(=O)[*:2])[*:1]; 4Abz = Nc1ccc(C(=O)O)cc1; Propionyl = CCC(=O)*; Bz = O=C(c1ccccc1)*; ClAc = O=C(CCl)*

Assays:
2.2.15 cells = assay: Cytotoxicity (TC50, median toxic concentration) in 2.2.15 cells; type: cell-based
Protocol: Cell control wells were simultaneously set up. […] IC50 and SI were calculated, respectively.

Row | melting point | Compound | TC50 (2.2.15 cells)
1 | 151 to 153 °C | COC(=O)[C@H](Cc1ccccc1)NC(=O)[C@H](Cc1ccccc1)NC(=O)c1ccc(O)cc1 | 
2 | 212 to 214 °C | COC(=O)[C@H](Cc1ccccc1)NC(=O)[C@H](Cc1ccc(O)cc1)NC(=O)c1ccc([N+](=O)[O-])cc1 | 
3 | 190 to 192.5 °C | COC(=O)[C@H](Cc1ccccc1)NC(=O)[C@H](Cc1ccc(O)cc1)NC(=O)c1ccc(C)cc1 | 
4 | 225.5 to 227 °C | O=C(N[C@@H](Cc1ccc(O)cc1)C(=O)N[C@H](CO)Cc1ccccc1)c1cccc([N+](=O)[O-])c1 | 
5 | 174 to 175 °C | COC(=O)[C@H](Cc1ccccc1)NC(=O)[C@H](Cc1ccccc1)NCc1ccncc1 | 
6 | 224.5 to 225.5 °C | COC(=O)[C@H](Cc1ccc([N+](=O)[O-])cc1)NC(=O)[C@H](Cc1ccccc1)NCc1ccncc1 | 
7 | 206.5 to 209 °C | COC(=O)[C@H](Cc1ccccc1)NC(=O)[C@H](Cc1ccc(O)cc1)NCc1ccncc1 | 
8 | 221.5 to 222 °C | COC(=O)[C@H](Cc1ccc(NC(C)=O)cc1)NC(=O)[C@H](Cc1ccccc1)NC(=O)c1ccc(C)cc1 | 
9 | 208 to 209.5 °C | COC(=O)[C@H](Cc1ccccc1)NC(=O)[C@H](Cc1ccccc1)NC(=O)c1ccc(NC(C)=O)cc1 (Ac-[4Abz]-Phe-Phe-OMe) | 
10 | 225 to 226 °C | COC(=O)[C@H](Cc1ccccc1)NC(=O)[C@H](Cc1ccc(O)cc1)NC(=O)c1ccc(NC(C)=O)cc1 (Ac-[4Abz]-Tyr-Phe-OMe) | 
11 | 200 to 202 °C | COC(=O)[C@H](Cc1ccccc1)NC(=O)[C@H](Cc1ccc(O)cc1)NC(=O)c1ccccc1 (Bz-Tyr-Phe-OMe) | 
12 | 201 to 202.5 °C | COC(=O)[C@H](Cc1ccccc1)NC(=O)[C@H](Cc1ccc(O)c([N+](=O)[O-])c1)NC(=O)c1ccccc1 (Bz-[Tyr(3-NO2)]-Phe-OMe) | 
13 | 222.5 to 224.5 °C | COC(=O)[C@H](Cc1ccccc1)NC(=O)[C@H](Cc1ccccc1)NC(=O)c1ccc(NC(=O)CCl)cc1 ({ClAc-4Abz}-Phe-Phe-OMe) | 
14 |  | COC(=O)[C@H](Cc1ccccc1)NC(=O)[C@H](Cc1ccccc1)NC(=O)c1ccccc1 [Example 01, methyl N-(N-benzoyl-L-phenylalanyl)-L-phenylalaninate] (Bz-Phe-Phe-OMe) | 1101.11 µg/mL (≈ 2560 µM)
15 |  | O=C(N[C@@H](Cc1ccccc1)C(=O)N[C@H](CO)Cc1ccccc1)c1ccccc1 [Example 02, N-(N-benzoyl-L-phenylalanyl)-L-phenylalaninol] | 231.12 µg/mL (≈ 574 µM)
16 |  | O=C(N[C@@H](Cc1ccccc1)C(=O)N[C@H](CO)Cc1ccccc1)c1ccccc1Cl [Example 08, N-(N-2-chloro-benzoyl-L-phenylalanyl)-L-phenylalaninol] | 166.70 µg/mL (≈ 382 µM)
17 |  | COC(=O)[C@H](Cc1ccc(O)cc1)NC(=O)[C@H](Cc1ccccc1)NC(=O)c1ccc(C)cc1 [Example 17, methyl N-(N-^4-methyl-benzoyl-L-phenylalanyl)-L-tyrosinate] | 465.23 µg/mL (≈ 1010 µM)
18 | 216 to 217 °C | COC(=O)[C@H](Cc1ccc(O)cc1)NC(=O)[C@H](Cc1ccccc1)NCc1ccncc1 [Example 46, methyl N-(N-isonicotinyl-L-phenylalanyl)-L-tyrosinate] | 
19 |  | CC(=O)Nc1ccc(C[C@H](NC(=O)c2ccccc2C(=O)[O-])C(=O)N[C@H](CO)Cc2ccccc2)cc1.[Na+] [Example 53, N-[N-(2-carboxyl-benzoyl)-4-acetamido-L-phenylalanyl]-L-phenylalaninol sodium salt] | 354.18 µg/mL
20 |  | O=C(O)CCC(=O)OC[C@H](Cc1ccccc1)NC(=O)[C@H](Cc1ccccc1)NC(=O)c1ccccc1 [Example 56, N-(N-benzoyl-L-phenylalanyl)-O-(3-carboxyl-propionyl)-L-phenylalaninol] | 333.33 µg/mL (≈ 663 µM)
21 |  | CCC(=O)Nc1ccc(C[C@H](NC(=O)c2ccc(Cl)cc2)C(=O)N[C@@H](Cc2ccccc2)C(=O)OC)cc1 [Example 70, methyl N-[N-(4-chloro-benzoyl)-4-propionamido-L-phenylalanyl]-L-phenylalaninate] | 17.81 µg/mL (≈ 33.2 µM)
22 |  | CN(C)CC(=O)Nc1ccc(C(=O)N[C@@H](Cc2ccccc2)C(=O)N[C@H](CO)Cc2ccccc2)cc1 [Example 76, N-[N-4-(dimethylaino-acetamido)-benzoyl-L-phenylalanyl]-L-phenylalaninol] | 37.04 µg/mL (≈ 73.7 µM)
23 |  | COC(=O)[C@H](Cc1ccccc1)NC(=O)[C@H](Cc1ccccc1)NC(=O)c1ccc(NC(=O)CN(C)C)cc1 [Example 81, methyl N-[N-4-(dimethylamino-acetamido)-benzoyl-L-phenylalanyl]-L-phenylalaninate] | 58.64 µg/mL (≈ 111 µM)
24 |  | COC(=O)[C@H](Cc1ccccc1)NC(=O)[C@H](Cc1ccccc1)NC(=O)c1ccc(NC(=O)CN2CCCC2)cc1 [Example 82, methyl N-{N-[4-(1-pyrrolidyl)acetamido-benzoyl]-L-phenylalanyl}-L-phenylalaninate] | 59.19 µg/mL (≈ 106 µM)
25 |  | O=C([O-])CCC(=O)Nc1ccc(C(=O)N[C@@H](Cc2ccccc2)C(=O)N[C@@H](Cc2ccccc2)C(=O)[O-])cc1.[Na+].[Na+] [Example 92, N-[N-4-(3-carboxyl-propionamido)-benzoyl-L-phenylalanyl]-L-phenylalanine sodium salt] ({Suc-4Abz}-Phe-Phe-OH) | 379.36 µg/mL
26 |  | O=C(N[C@@H](Cc1ccc(O)cc1)C(=O)N[C@@H](Cc1ccccc1)C(=O)O)c1ccccc1 [Example 93, N-(N-benzoyl-L-tyrosyl)-L-phenylalanine] (Bz-Tyr-Phe-OH) | 577.35 µg/mL (≈ 1330 µM)
27 |  | CCC(=O)Nc1ccc(C[C@H](NC(=O)[C@H](Cc2ccccc2)NC(=O)c2ccccc2)C(=O)O)cc1 [Example 94, N-(N-benzoyl-L-phenylalanyl)-4-propionamido-L-phenylalanine] (Bz-Phe-[Phe(4-NH2)](Propionyl)-OH) | 561.21 µg/mL (≈ 1150 µM)
28 |  | CC(=O)Nc1ccc(C[C@H](NC(=O)[C@H](Cc2ccc(O)cc2)NC(=O)c2ccccc2)C(=O)[O-])cc1.[Na+] [Example 95, N-(N-benzoyl-L-tyrosyl)-4-acetamido-L-phenylalanine sodium salt] (Bz-Tyr-[Phe(4-NH2)](Ac)-OH) | 79.46 µg/mL
29 |  | CC(=O)Nc1ccc(C[C@H](NC(=O)[C@H](Cc2ccc(O)cc2)NC(=O)c2ccc(C)cc2)C(=O)O)cc1 [Example 96, N-(N-4-methyl-benzoyl-L-tyrosyl)-4-acetamido-L-phenylalanine] | 199.67 µg/mL (≈ 397 µM)

Row | Compound | melting point | TC50 (2.2.15 cells)
30 | O=C(N[C@@H](Cc1ccc([N+](=O)[O-])cc1)C(=O)N[C@H](CO)Cc1ccccc1)c1ccccc1 [Example 06, N-(N-benzoyl-4-nitro-L-phenylalanyl)-L-phenylalaninol] | 196 to 199 °C | 53.42 µg/mL (≈ 119 µM)
31 | COC(=O)[C@H](Cc1ccccc1)NC(=O)[C@H](Cc1ccccc1)NC(=O)c1cccc(C)c1 [Example 09, methyl N-(N-3-methyl-benzoyl-L-phenylalanyl)-L-phenylalaninate] | 190 to 192 °C | 240.38 µg/mL (≈ 541 µM)
32 | COC(=O)[C@H](Cc1ccccc1)NC(=O)[C@H](Cc1ccccc1)NC(=O)c1ccccc1Cl [Example 10, methyl N-(N-2-chloro-benzoyl-L-phenylalanyl)-L-phenylalaninate] | 152.5 to 153.5 °C | 288.68 µg/mL (≈ 621 µM)
33 | COC(=O)[C@H](Cc1ccc(O)cc1)NC(=O)[C@H](Cc1ccccc1)NC(=O)c1ccccc1Cl [Example 11, methyl N-(N-2-chloro-benzoyl-L-phenylalanyl)-L-tyrosinate] | 164.5 to 167 °C | 500.00 µg/mL (≈ 1040 µM)
34 | COC(=O)[C@H](Cc1ccccc1)NC(=O)[C@H](Cc1ccc([N+](=O)[O-])cc1)NC(=O)c1ccccc1 [Example 12, methyl N-(N-benzoyl-4-nitro-L-phenylalanyl)-L-phenylalaninate] (Bz-[Phe(4-NO2)]-Phe-OMe) | 202 to 204.5 °C | 388.03 µg/mL (≈ 816 µM)
35 | Cc1ccc(C(=O)N[C@@H](Cc2ccccc2)C(=O)N[C@H](CO)Cc2ccccc2)cc1 [Example 13, N-(N-4-methyl-benzoyl-L-phenylalanyl)-L-phenylalaninol] | 200 to 202 °C | 776.06 µg/mL (≈ 1860 µM)
36 | COC(=O)[C@H](Cc1ccc([N+](=O)[O-])cc1)NC(=O)[C@H](Cc1ccc([N+](=O)[O-])cc1)NC(=O)c1ccccc1 [Example 15, methyl N-(N-benzoyl-4-nitro-L-phenylalanyl)-4-nitro-L-phenylalaninate] (Bz-[Phe(4-NO2)]-[Phe(4-NO2)]-OMe) | 220 to 221.5 °C | 45.69 µg/mL (≈ 87.8 µM)
37 | O=C(N[C@@H](Cc1ccccc1)C(=O)N[C@H](CO)Cc1ccc([N+](=O)[O-])cc1)c1ccccc1 [Example 16, N-(N-benzoyl-L-phenylalanyl)-4-nitro-L-phenylalaninol] | 192 to 195 °C | 52.34 µg/mL (≈ 117 µM)
38 | COC(=O)[C@H](Cc1ccc(O)cc1)NC(=O)[C@H](Cc1ccc([N+](=O)[O-])cc1)NC(=O)c1ccc(C)cc1 [Example 18, methyl N-(N-4-methyl-benzoyl-4-nitro-L-phenylalanyl)-L-tyrosinate] | 213 to 215 °C | 45.28 µg/mL (≈ 89.6 µM)
39 | O=C(N[C@@H](Cc1ccc(O)cc1)C(=O)N[C@H](CO)Cc1ccccc1)c1ccccc1 [Example 21, N-(N-benzoyl-L-tyrosyl)-L-phenylalaninol] | 216 to 217.5 °C | 28.74 µg/mL (≈ 68.7 µM)
40 | Cc1ccc(C(=O)N[C@@H](Cc2ccc(O)cc2)C(=O)N[C@H](CO)Cc2ccccc2)cc1 [Example 26, N-(N-4-methyl-benzoyl-L-tyrosyl)-L-phenylalaninol] | 193 to 195 °C | 472.10 µg/mL (≈ 1090 µM)
41 | O=C(N[C@@H](Cc1ccccc1)C(=O)N[C@H](CO)Cc1ccccc1)c1ccc(O)cc1 [Example 27, N-(N-4-hydroxyl-benzoyl-L-phenylalanyl)-L-phenylalaninol] | 223 to 225 °C | 441.29 µg/mL and 456.75 µg/mL
42 | O=C(N[C@H](CO)Cc1ccccc1)[C@H](Cc1ccc(O)cc1)NCc1ccncc1 [Example 47, N-(N-isonicotinyl-L-tyrosyl)-L-phenylalaninol] | 210 to 212 °C | 256.78 µg/mL (≈ 633 µM)
